This is an account of results in BindingDB's records for patent US11104664 (Yangtze River Pharmaceutical Group Co., 2021).

This assay addresses Histone-lysine N-methyltransferase EZH2 [Y641F] (Homo sapiens, UniProt Q15910, Y641F). The assay is described as follows: In Vitro Methyltransferase Activity Assay. The protocol: Recombinant PRC2 (EZH2-Y641F) was purchased from Active motif, S-adenosyl-methionine (SAM) and Poly-L-lysine (PLL) were purchased from Sigma-Aldrich, and H3(1-50)K27me1 peptide was purchased from Cisbio. LANCEUltrasystem (Perkinelmer) was used for detection system. In the enzyme activity test, compounds to be tested were diluted by 8 gradient points in a ratio of 1:3, and added into each well in a reaction plate, and 100 ng recombinase was added, followed by a buffer [20 mM Tris pH8.5, 2 mM MgCl2, 0.01% Tween-20, 1 mM TCEP] containing 2.5 uM SAM/250 nM H3 (1-50)K27me1 premixtures. Enzymatic reaction thus began at room temperature. After reacted for 3 hours, a detection solution premixed with PLL, detection antibody and Ulight was added, and reacted for 1 hour at room temperature. The fluorescence value was then read on a Tecan infinite pro. IC50 was calculated by fitting in a four-factor model in the XLfit software.

Histone-lysine N-methyltransferase EZH2 [Y641F], sequence (Q15910 whole entry Y641F): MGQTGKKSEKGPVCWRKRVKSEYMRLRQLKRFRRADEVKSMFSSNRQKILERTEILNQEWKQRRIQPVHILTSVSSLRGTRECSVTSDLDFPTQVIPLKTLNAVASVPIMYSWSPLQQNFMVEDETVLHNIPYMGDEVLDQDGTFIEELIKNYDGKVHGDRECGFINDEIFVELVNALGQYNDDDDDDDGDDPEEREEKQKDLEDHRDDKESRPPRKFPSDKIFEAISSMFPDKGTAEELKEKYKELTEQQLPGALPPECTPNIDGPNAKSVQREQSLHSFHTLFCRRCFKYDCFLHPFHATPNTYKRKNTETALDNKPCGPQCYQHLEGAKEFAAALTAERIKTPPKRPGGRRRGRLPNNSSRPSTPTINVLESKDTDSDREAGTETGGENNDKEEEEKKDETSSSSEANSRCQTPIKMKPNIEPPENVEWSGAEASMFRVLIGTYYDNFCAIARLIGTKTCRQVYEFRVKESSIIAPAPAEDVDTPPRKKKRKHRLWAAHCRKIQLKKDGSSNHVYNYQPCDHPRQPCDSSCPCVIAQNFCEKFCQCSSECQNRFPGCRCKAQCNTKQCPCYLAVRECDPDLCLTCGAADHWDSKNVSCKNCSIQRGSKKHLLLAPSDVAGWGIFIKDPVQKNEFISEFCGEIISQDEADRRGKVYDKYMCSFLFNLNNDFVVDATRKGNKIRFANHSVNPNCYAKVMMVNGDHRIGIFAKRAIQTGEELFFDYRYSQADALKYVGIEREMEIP

As a reminder, the IC50 is the midpoint of a concentration-inhibition curve. Lower therefore signals greater potency. With `CCN(c1c(C)c(C(=O)NCc2c(C)cc(C)[nH]c2=O)cc2c1cnn2C)C1CCOCC1` [US11104664, Compound P-7], the midpoint of inhibition, the IC50, lay at 12 nM.
